Tested on: 624824-186-R-J3-PDC multicell spheroids, viability
Assay: Anticancer human tumor 624824-186-R-J3-PDC patient-derived colon adenocarcinoma cell line growth inhibition [PI3K]
Conditions: for IC50: curve of first compound; for viability, T/C: stronger effect = lower value; active = viability on the fitted dose curve at most 10% of control; inactive = the rest
Text: Combinatorial screen of targeted agents with the PI3K inhibitors inavolisib, alpelisib, duvelisib, and copanlisib in multi-cell type tumor spheroids
A high-throughput screen of multi-cell type tumor spheroids was designed to identify active combinations of targeted small molecules and PI3K pathway inhibitors. Complex spheroids include a stromal component modeled by human endothelial cells (HUVEC) and fibroblasts modeled by human mesenchymal stem cells (MSCs). The concentration ranges selected for each drug and investigational agent were based upon clinically achievable concentrations if the clinical Cmax of the agent was known.
Compounds. The drugs and investigational agents: inavolisib (NSC800729), alpelisib (NSC765974), duvelisib (NSC772469), copanlisib (NSC816437), ipatasertib (NSC767898), afuresertib (NSC778305), talazoparib (NSC767125), sapanisertib (NSC764658), selumetinib (NSC741078), tovorafenib (DAY101, NSC766906), vemurafenib (NSC761431), ravoxertinib (NSC781343), sotorasib (NSC818433), MRTX1133 (NSC 836407), abemaciclib (NSC 768073), palbociclib (NSC758247), venetoclax (NSC 766270), SY5609 (NSC837396), enzalutamide (NSC755605), and darolutamide (NSC825331), were obtained from the National Cancer Institute (NCI) Developmental Therapeutics Program Chemical Repository. The FDA-approved anticancer drug set is available from the NCI Developmental Therapeutics Program. […] The stock solutions were prepared in dimethyl sulfoxide (DMSO, Sigma-Aldrich, St. Louis, MO, cat. D2650) at 800-fold the tested concentration and stored at -70 degrees C prior to their use. All drugs and investigational agents were tested over a range starting from a high concentration at or near the clinical Cmax and decreasing in half-log increments. If the clinical Cmax for an agent had not been determined, the highest concentration tested was 10 microM.
Cell Culture. All cells were maintained in an incubator at 37 degrees C and 5% CO2 with 95% humidity. The PDC lines were cultured according to standard operating procedures established by the NCI PDMR (https://pdmr.cancer.gov/sops/default.htm). All PDCs were thawed and cultured in Matrigel-coated flasks prepared with a working solution of 1X Ham's F-12 nutrient mix, without supplementation (Invitrogen, Waltham, MA, cat. 11765054), 100 U/mL penicillin-streptomycin (Invitrogen, cat. 15140122), and 2.5% Matrigel (Corning Inc., Corning, NY, cat. 354248) for the first three passages. The 354836-022-R-J1-PDC, 475296-252-R-J1-PDC, and 997726-040-R-J2-PDC lines were cultured in 6A media, which includes advanced DMEM/F-12 (Thermo Fisher Scientific, cat. 12634028), 10 mM HEPES (Thermo Fisher Scientific, cat. 15630080), 1X GlutaMAX supplement (Thermo Fisher Scientific, cat. 35050061), 0.1 mg/mL primocin (InvivoGen, San Diego, CA, cat. ant-pm-2), 10% defined fetal bovine serum, heat inactivated (HyClone Laboratories Inc., Logan, UT, cat. SH30070.03HI), 50% L-WRN conditioned media (ATCC, cat. CRL-3276), 1.25 mM N-Acetyl-L-cysteine (Sigma-Aldrich, cat. A9165), 10 mM nicotinamide (Sigma-Aldrich, cat. N0636), 1X B-27 supplement (Thermo Fisher Scientific, cat. 17504044), 1X N-2 supplement (Thermo Fisher Scientific, cat. 17502048), and 10 microM Y-27632 dihydrochloride (Tocris Bioscience, Bristol, United Kingdom, cat. 1254). The 624824-186-R-J2-PDC line was cultured in 6C/Colon 1B media, which includes all 6A media components plus 50 ng/mL human EGF recombinant protein (Thermo Fisher Scientific, cat. PHG0311). […]

[1] = second compound 0.0316 µM, first compound 0.0316 µM
[2] = second compound 0.0316 µM, first compound 0.1 µM
[3] = second compound 0.1 µM, first compound 0.0316 µM
[4] = second compound 0.1 µM, first compound 0.1 µM
[5] = second compound 0.316 µM, first compound 0.0316 µM
[6] = second compound 0.316 µM, first compound 0.1 µM
[7] = second compound 1 µM, first compound 0.0316 µM
[8] = second compound 1 µM, first compound 0.1 µM
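Also: spheroids exposed to agents for seven days before luminescence read.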
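For viability, T/C in this document: luminescent signal used as a stand-in for spheroid viability; percent viability relative to DMSO vehicle control wells taken as 100%.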

CCCS(=O)(=O)Nc1ccc(F)c(C(=O)c2c[nH]c3ncc(-c4ccc(Cl)cc4)cc23)c1F + COc1c(OCCCN2CCOCC2)ccc2c3n(c(=NC(=O)c4cnc(N)nc4)nc12)CCN3
331 nM: IC50 (second compound 0.1 µM)
1870 nM: IC50 (second compound 0.0316 µM)
< 31.6 nM: IC50 (second compound 0.316 µM) | IC50 (second compound 1 µM)
active: viability, T/C (second compound 0.316 µM, first compound 10 µM) 8.93% | viability, T/C (second compound 1 µM, first compound 10 µM) 6.57%
5310 nM: IC50 (second compound 0.00316 µM)
inactive: viability, T/C (second compound 0.00316 µM, first compound 0.0316 µM) 87.3% | viability, T/C (second compound 0.00316 µM, first compound 0.1 µM) 103% | viability, T/C (second compound 0.00316 µM, first compound 0.316 µM) 114% | viability, T/C (second compound 0.00316 µM, first compound 1 µM) 96.9% | viability, T/C (second compound 0.00316 µM, first compound 3.16 µM) 82.5% | viability, T/C (second compound 0.00316 µM, first compound 10 µM) 10.3% | viability, T/C (second compound 0.01 µM, first compound 0.0316 µM) 102% | viability, T/C (second compound 0.01 µM, first compound 0.1 µM) 102% | viability, T/C (second compound 0.01 µM, first compound 0.316 µM) 84.8% | viability, T/C (second compound 0.01 µM, first compound 1 µM) 74.8% | viability, T/C (second compound 0.01 µM, first compound 3.16 µM) 61.5% | viability, T/C (second compound 0.01 µM, first compound 10 µM) 13.6% | viability, T/C [1] 95.7% | viability, T/C [2] 86.3% | viability, T/C (second compound 0.0316 µM, first compound 0.316 µM) 65.4% | viability, T/C (second compound 0.0316 µM, first compound 1 µM) 67% | viability, T/C (second compound 0.0316 µM, first compound 3.16 µM) 42.6% | viability, T/C (second compound 0.0316 µM, first compound 10 µM) 16.1% | viability, T/C [3] 74.7% | viability, T/C [4] 66% | viability, T/C (second compound 0.1 µM, first compound 0.316 µM) 46.4% | viability, T/C (second compound 0.1 µM, first compound 1 µM) 37.7% | viability, T/C (second compound 0.1 µM, first compound 3.16 µM) 27.5% | viability, T/C (second compound 0.1 µM, first compound 10 µM) 9.08% | viability, T/C [5] 44% | viability, T/C [6] 37.5% | viability, T/C (second compound 0.316 µM, first compound 0.316 µM) 31.8% | viability, T/C (second compound 0.316 µM, first compound 1 µM) 24.1% | viability, T/C (second compound 0.316 µM, first compound 3.16 µM) 17.2% | viability, T/C [7] 29% | viability, T/C [8] 27.1% | viability, T/C (second compound 1 µM, first compound 0.316 µM) 20.4% | viability, T/C (second compound 1 µM, first compound 1 µM) 17.2% | viability, T/C (second compound 1 µM, first compound 3.16 µM) 12.5%
3710 nM: IC50 (second compound 0.01 µM)

CC(C)n1nc(-c2ccc3oc(N)nc3c2)c2c(N)ncnc21 + Cc1nc(NC(=O)N2CCCC2C(N)=O)sc1-c1ccnc(C(C)(C)C(F)(F)F)c1
78.7 nM: IC50 (second compound 0.316 µM)
98.4 nM: IC50 (second compound 0.1 µM)
> 100 nM: IC50 (second compound 0.0316 µM)
64.4 nM: IC50 (second compound 1 µM)
15.5 nM: IC50 (second compound 10 µM)
inactive: viability, T/C (second compound 0.0316 µM, first compound 0.000316 µM) 110% | viability, T/C (second compound 0.0316 µM, first compound 0.001 µM) 104% | viability, T/C (second compound 0.0316 µM, first compound 0.00316 µM) 112% | viability, T/C (second compound 0.0316 µM, first compound 0.01 µM) 99.1% | viability, T/C [1] 91.3% | viability, T/C [2] 53.3% | viability, T/C (second compound 0.1 µM, first compound 0.000316 µM) 103% | viability, T/C (second compound 0.1 µM, first compound 0.001 µM) 101% | viability, T/C (second compound 0.1 µM, first compound 0.00316 µM) 101% | viability, T/C (second compound 0.1 µM, first compound 0.01 µM) 110% | viability, T/C [3] 97.8% | viability, T/C [4] 48.9% | viability, T/C (second compound 0.316 µM, first compound 0.000316 µM) 108% | viability, T/C (second compound 0.316 µM, first compound 0.001 µM) 101% | viability, T/C (second compound 0.316 µM, first compound 0.00316 µM) 105% | viability, T/C (second compound 0.316 µM, first compound 0.01 µM) 100% | viability, T/C [5] 89.2% | viability, T/C [6] 40% | viability, T/C (second compound 1 µM, first compound 0.000316 µM) 104% | viability, T/C (second compound 1 µM, first compound 0.001 µM) 105% | viability, T/C (second compound 1 µM, first compound 0.00316 µM) 97.2% | viability, T/C (second compound 1 µM, first compound 0.01 µM) 91.3% | viability, T/C [7] 77% | viability, T/C [8] 34% | viability, T/C (second compound 3.16 µM, first compound 0.000316 µM) 87.3% | viability, T/C (second compound 3.16 µM, first compound 0.001 µM) 94.6% | viability, T/C (second compound 3.16 µM, first compound 0.00316 µM) 89.5% | viability, T/C (second compound 3.16 µM, first compound 0.01 µM) 72.9% | viability, T/C (second compound 3.16 µM, first compound 0.0316 µM) 48.5% | viability, T/C (second compound 3.16 µM, first compound 0.1 µM) 30.4% | viability, T/C (second compound 10 µM, first compound 0.000316 µM) 67.5% | viability, T/C (second compound 10 µM, first compound 0.001 µM) 68.4% | viability, T/C (second compound 10 µM, first compound 0.00316 µM) 68.1% | viability, T/C (second compound 10 µM, first compound 0.01 µM) 52.8% | viability, T/C (second compound 10 µM, first compound 0.0316 µM) 42% | viability, T/C (second compound 10 µM, first compound 0.1 µM) 25.7%
28.6 nM: IC50 (second compound 3.16 µM)

Source: PubChem BioAssay AID1963977 (Molecular Pharmacology Branch, DTP, NCI, 2024)
